Measurements from a melting point compilation (Tetko et al.; mined from patent text by program, amines drawn as free bases though some values may be those of a salt).

Structure (SMILES) | melting point
Cc1cc(F)ccc1-c1ccc(S(=O)(=O)N2c3ccccc3CC2C(=O)NCc2ccc(CC(=O)O)cc2)cc1 (stereo not given) | 95 to 100 °C
Cn1c([N+](=O)[O-])cnc1-c1cc(C(N)=O)on1 | 235 to 238 °C
N#Cc1ccc(-c2csc(Nc3ccccc3O)n2)cc1 | 278 to 280 °C
CCOCC(C)Oc1ccc(CSc2cnn(C(C)(C)C)c(=O)c2Cl)cc1 (stereo not given) | 89.2 to 90.2 °C
CS(=O)(=O)c1ccc(C(=O)Nc2ccc(-n3nc(C(F)(F)F)cc3C(F)(F)F)cc2)c(Cl)c1 | 219 to 220 °C
O=C(Nc1ccc(OC(F)(F)F)cc1)NC1CCN(C(=O)C(F)(F)F)CC1 | 150 to 154 °C
O=[N+]([O-])c1ccc(S(=O)(=O)c2ncc(Cl)cn2)s1 | 144 to 146 °C
O=C1N(c2ccc(Cl)cc2)c2ncccc2C1(Cc1ccccc1)Cc1ccncc1 (stereo not given) | 182 to 185 °C
CC(=O)Nc1cc2c(cc1Br)C(Nc1ccc(C(=O)OC(C)(C)C)c(F)c1)CC2 (stereo not given) | > 70 °C
Cc1cccc(-n2nc3c(c2OS(=O)(=O)C(F)(F)F)CCC3)n1 | 146 to 148 °C
Fc1ccc(C23CNCC(CO2)O3)cc1 (stereo not given) | 89 °C
CC(C)(C)OC(=O)c1ccc(NC2CCc3cc(NC(=O)COCc4ccccc4)c(C#N)cc32)cc1 (stereo not given) | 194 to 195 °C
Oc1cccc(SCCCSc2ccc(Cl)cc2)c1 | 102 °C
CC(C)N1C(=O)c2cccc3c(S(C)(=O)=O)ccc1c23 | 164 to 165 °C
CC(C)c1nccn1S(=O)(=O)c1c[nH]cn1 | 118 to 120 °C
O=C(O)CCc1ccc(CCNC(=O)C2Cc3ccccc3N2S(=O)(=O)c2ccc(-c3cccc(C(F)(F)F)c3)cc2)cc1 (stereo not given) | 86 °C
C=CCOc1cc(C)ccc1[N+](=O)[O-] | 30 to 32 °C
CCOc1ccc2[nH]c(C)cc2c1 | 76 to 77 °C
CC(C)(C)c1cc(-c2ccc(C(=O)O)c(C(C)(C)C)c2)ccc1O | > 240 °C
Nc1nc2c(ncn2OC(CO)COCP(=O)(O)O)c(=O)[nH]1 (stereo not given) | > 300 °C
CCN(C(=O)OC(C)(C)C)C1CC=C(c2c[nH]c3cc(NC(=N)c4cccs4)ccc23)CC1 (stereo not given) | 110 to 112 °C
O=c1[nH]c(=Cc2cccs2)c(=O)[nH]c1=Cc1ccc(OCc2ccccc2)cn1 | 215 to 217 °C
O=S1(=O)c2cccc3cccc(c23)N1CCN1CCC(CC2Cc3ccccc3C2)CC1 | 126 °C
COC(=O)c1cccc(-c2ccccc2)c1S(C)(=O)=O | 101 to 115 °C

Structure (SMILES) | melting point
CCCCCCCCCCCCCCCCCCN=Cc1ccc(O)cc1 | 101 °C
CC(C)(CCl)C(=O)C(Oc1ccc(-c2ccc(Cl)cc2)cc1)n1ccnc1 (stereo not given) | 97 to 99 °C
CN1CCCC1=C1C(=O)N(c2ccccc2)c2cc(Cl)ccc21 | 134 to 137 °C
Cc1c(C)c(N2CCN(c3ccc(Br)cc3)CC2)c(C)c2c1OC(C)C2 (stereo not given) | 202 to 204 °C
C[C@H]1N(C(=O)c2ccc(OCC(F)(F)C(F)F)cc2)CC(O)O[C@@]1(Cn1cncn1)c1ccc(F)cc1F (relative stereo) | 209 to 210 °C
CC(C)(C(=O)c1ccc(SCCCCCCS)cc1)N1CCOCC1 | 61 to 64 °C
CN1CCN(Cc2ccc(NC(=O)n3ccc4cc(Oc5cc(CC(N)=O)ncn5)ccc43)cc2C(F)(F)F)CC1 | 221 to 223 °C
CCCCCCCCCCCOCc1ccc(C(=O)O)cc1OCCCCCCCCCCC | 61 to 63 °C
CNC(=O)c1ccc(-c2ccc3oc(C4CCN(C(=O)OC(C)C)CC4)nc3c2)cn1 | 158 to 161 °C
NC(=O)Nc1ccc2c(OCc3ccccc3-c3ccccc3)cccc2c1 | 159 to 161 °C
COC(=O)CCCCCCCCCCCCCCCCCCCCCOS(=O)(=O)c1ccc(C)cc1 | 74 to 76 °C
CCCN1C(=O)c2ccccc2C1(O)c1ccc(F)cc1 (stereo not given) | 172 to 175 °C
COc1ccc(CC(=O)Nc2c(-c3cc(Cl)ccc3O)c3cc(C(F)(F)F)ccc3[nH]c2=O)cc1 | 172 to 175 °C
Nc1ncc2c(=O)c(C(=O)ON3C(=O)CCC3=O)c[nH]c2n1 | > 300 °C
CCOC(=O)CN(C)C1CCCN(C(=O)c2ccc(NC(=O)c3ccccc3C)cc2)c2ccccc21 (stereo not given) | 167 to 168 °C
COC(=O)c1ccc(C(=O)OC)c(S(N)(=O)=O)c1 | 165 to 170 °C
O=C(NC(=O)C(Br)CBr)Nc1ccccc1 (stereo not given) | 160 to 161 °C
O=C(COc1ccccc1)N[C@@H](Cc1ccccc1)C(=O)CSCc1ccsc1 | 80 to 81 °C
CC(=O)Nc1ccc(SCc2nc3ccccc3s2)cc1 | 147 to 149 °C
Nc1ccccc1C(=O)c1ccncc1 | 153 to 161 °C
CCOC(=O)Oc1ccc(S(=O)(=O)N2c3cc(C(F)(F)F)ccc3-n3cccc3C2CC)cc1 (stereo not given) | 88 to 90 °C
COc1c(N)nc(-c2ccc(Cl)c(F)c2F)nc1C(=O)NO | 192 to 194 °C
O=C1CCc2c(Br)cc([N+](=O)[O-])c(O)c21 | 149 to 151 °C
c1cn(CCc2ccc3c(c2)-c2[nH]nc(-c4ccsc4)c2C3)cn1 | 212 to 216 °C

Structure (SMILES) | melting point
OCc1ccc2cc(-c3nnc(CSCCOc4ccccc4)o3)ccc2c1 | 132 to 133 °C
Cc1c(-c2cccc(C#N)c2F)sc2nc(N)[nH]c(=O)c12 | 350 to 370 °C
Cc1cccc(OCC2=NCCN2C(=O)Nc2ccccc2)c1C | 150 to 152 °C
CC(C)(C)c1cnc(C(=O)Nc2cc(-c3cc(Nc4ccc(-c5ccncc5)nn4)c(=O)[nH]n3)ccc2F)cn1 | > 300 °C
N#Cc1cc(-c2ccccc2)c(=O)n2c1-c1ccccc1CC2 | 204 to 205 °C
COc1cc2ncnc(Nc3cccc(Br)c3)c2cc1O | 299 °C
CCOc1cc(C(CS(C)(=O)=O)N2C(=O)c3cccc(NC(=O)COCc4ccccc4)c3C2=O)ccc1OC (stereo not given) | 154 to 156 °C
O=S(=O)(Cc1c(C(F)(F)F)nn(-c2ccccc2)c1O)c1ccccc1 | 122 to 123 °C
CCOC(=O)c1cnn(-c2ccc(Oc3ccc(C)cc3O)cc2)c1 | 122 to 123 °C
OCc1ccc2c(c1)ncn2-c1cccc(-c2cccnc2)c1 | 183 to 185 °C
CC12CCC3C(CCC4CC(O)CCC43C)C1CC=C2c1cccnc1 (stereo not given) | 198 to 199 °C
COC(=O)c1ccc(N2CCC(N(C)Cc3ccc(F)cc3)CC2)cc1 | 92 °C
COc1ccc(S(=O)(=O)C2(C(=O)O)CCCC2)cc1 | 89 to 91 °C
COC(=O)c1ccc2cc(OC)c(OC)cc2c1O | 144 to 145 °C
CCCN(Cc1ccc(-c2ccccc2-c2nnn[nH]2)cc1)C1(C(=O)O)C=NSN1 (stereo not given) | 97 to 98 °C
Cc1cc(-c2nc[nH]n2)ccc1N | 183 to 186 °C
O=S(=O)(c1ccc(-c2ccc3cnc(Nc4ccc(N5CCOCC5)cc4)nn23)cc1)N1CCCC1 | 182 to 184 °C
C=CCc1cc(C=C2SC(=S)NC2=O)cc(CC=C)c1O | 157 to 160 °C
CC(C)(C)OC(=O)CC1CC(C=O)OC(C)(C)O1 (stereo not given) | 71 to 73 °C
N#CCCc1cccc2ccn(Cc3cccc(/C=C/c4ccc5ccc(Cl)cc5n4)c3)c12 | 151 °C
Cc1n[nH]c(=O)n(Cc2ccccc2)c1=O | 143 to 146 °C
CSc1cc2c(cc1C(F)(F)F)N(C(=O)Nc1ccc(CO)cc1)CC2 | 184 to 187 °C
